This passage reports TGI and GI50 results from PubChem BioAssay (NCI).

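Tested at 5 concentrations; 48 h exposure; 96-well plates; endpoints linearly interpolated, else capped at highest concentration. GI50 is the concentration that inhibits growth by half. The concentration for full growth arrest is given as TGI.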 Where a SMILES comes first, the peptide text is derived from it. The star is where a group is joined. Boc = CC(C)(C)OC(=O)*; OBn = c1ccc(CO*)cc1 Some results are limits rather than exact numbers.

Assay in all cases: NCI-60 cell line screen, 48 h
In assay [1] the test system is MDA-MB-231 breast.
For assay [2], the system named is COLO 205 colon.
The test system of assay [3] is NCI-H522 lung.
The subject of assay [4] is HOP-62 NSCLC.
The subject of assay [5] is SNB-75 CNS.
The test system of assay [6] is SF-295 CNS.
In assay [7] the test system is LOX IMVI melanoma.
Assay [8] has as its system MOLT-4 leukemia.
The subject of assay [9] is PC-3 prostate.
Assay [10] has as its system RXF 393 renal.

As to `COc1cc(C2SCC(=O)N2c2ccc(Oc3ccc(Cl)cc3)c(Cl)c2)cc(OC)c1OC` (configuration not stated), the TGI in assay [1] was found to be 40.3 µM; in assay [2], 36.6 µM; in assay [3] it was 37.1 µM; in assay [4], 35.2 µM; in assay [5] it was 31.3 µM; in assay [6], 34.6 µM. Further, the TGI is 36.8 µM in assay [7], more than 100 µM in assay [8] and 28.9 µM in [9].

On to `C=CC[C@@]1(C(=O)OC)[C@H](Sc2ccccc2)C1(C)C`, for which the TGI was more than 100 µM in assay [1]; more than 100 µM in assay [2]; 87.9 µM in assay [3]; more than 100 µM in assay [4]; 80.8 µM in assay [5]; more than 100 µM in [6]. Moreover, the results for the TGI in assay [8] and in assay [9] were 34.3 µM and more than 100 µM, respectively.

In the case of `O=C(N[C@H]1c2ccsc2/C(=N/O)[C@H]1O)C(F)(F)F`, the TGI in assay [2], in [4], in assay [5], in [6], in [7] and in assay [10] was more than 100 µM in each case. For the same molecule, the TGI in [8] and in assay [9] was more than 100 µM each time.

With `CC(C)(C)OC(=O)NC(Cc1ccccc1)C(=O)NC(Cc1ccccc1)C(=O)NCC(=O)OCc1ccccc1` (stereo not drawn) (Boc-Phe-Phe-Gly-OBn; configuration not given here), the TGI in assay [2] is more than 100 µM; in [3], 48.8 µM; in assay [4], 91.7 µM; in assay [5], 59 µM; in assay [7], 24.5 µM; in [8], 56 µM. Also, in [9], the TGI amounted to 35.8 µM.

Regarding `Cc1ccc(-c2n[nH]c(=O)[nH]2)cc1[N+](=O)[O-]`, the TGI in [2], in [3], in assay [4], in assay [5], in assay [6] and in [7] was more than 100 µM in each case. The TGI in assay [10], in assay [8] and in [9] was more than 100 µM in each case.

With `CN(C)CCCOCCn1c2c(c3ccccc31)CCCC2`, the TGI worked out at 26.6 µM in assay [1]; 32.3 µM in assay [2]; 28.3 µM in [4]; 57.9 µM in [5]; 40.1 µM in assay [6]; 31.5 µM in [7]. Moreover, the figures for the TGI in [8] and in [9] were 30.6 µM and 32.6 µM, respectively.

Regarding `Cc1ccc(S(=O)(=O)c2c(O)c3ccccc3n(C)c2=O)cc1`, the TGI in assay [1], in assay [2], in assay [4], in assay [5], in [6] and in [10] was more than 100 µM throughout. Besides, the TGI in [9] was more than 100 µM.

With `C[n+]1c2ccccc2c(C(=O)Nc2ccc(S(=O)(=O)N=C(N)N)cc2)c2ccccc21`, the TGI in assay [1] was 76.5 µM; in [2], more than 100 µM; in assay [3] it was more than 100 µM; in assay [4], more than 100 µM; in [5], more than 100 µM; in assay [6], more than 100 µM. Besides, the TGI in assay [7], in [8] and in assay [9] was more than 100 µM each time.

With `COc1ccc2c(c1)/c(=C/c1ccc(N(C)C)cc1)c1cc(-c3ccccc3)[n+](C)n12`, the TGI came out at 1.08 µM in [1]; 2.71 µM in assay [4]; 0.327 µM in assay [5]; 1.51 µM in assay [7]; 1.64 µM in assay [10]; 4.92 µM in assay [8]. Moreover, the TGI in assay [9] is 1.09 µM. For the same molecule, in assay [8], the GI50 was 142 nM.

`NCCCCNCCCNC(=O)c1nc(-c2csc(CCN)n2)sc1Cl`: the TGI in assay [2], in assay [3], in assay [4], in [5], in assay [6] and in assay [10] was more than 100 µM throughout. This molecule showed a TGI in [8] of more than 100 µM.

As for `CC(=O)O[C@H]1C(=O)[C@@]2(C)[C@H]([C@H](OC(=O)c3ccccc3)[C@]3(O)C[C@H](OC(=O)[C@H](O)[C@@H](NC(=O)CC(C)(C)C)c4ccccc4)C(C)=C1C3(C)C)C1(OC(C)=O)CO[C@@H]1C[C@@H]2O` (some centres not stated), the TGI in assay [1] is more than 10 µM; in assay [2], 0.012 µM; in [5], 0.0154 µM; in [7] it was more than 10 µM; in assay [10], 0.148 µM; in [8] it was more than 3.96 µM. Also, the TGI in assay [9] was more than 10 µM.

Consider `CSc1c(C#N)c2n(c3ccccc13)c1ccccc1[n+]2C`, for which the TGI in assay [1] is 60.1 µM; in assay [2], 38.6 µM; in [3] it was 31.5 µM; in assay [4], 52.7 µM; in assay [5] it was more than 100 µM; in assay [6], more than 100 µM. Further, the TGI in assay [7] is more than 100 µM; in [8], 38.6 µM; in [9] it was 78.5 µM.

`O=C(NCCCNCCNC(=O)c1cc(-c2ccccc2)nc2ccccc12)c1cc(-c2ccccc2)nc2ccccc12`: the TGI is 3.52 µM in [1]; 3.21 µM in assay [2]; 3.14 µM in assay [3]; 3.06 µM in [4]; 2.83 µM in assay [5]; 3.19 µM in assay [6]. For the same molecule, the TGI worked out at 2.95 µM in [7], 4.31 µM in assay [8] and 3.09 µM in [9].

Regarding `CC(=O)Oc1ccc(C2COc3cc(OC(C)=O)c(OC(C)=O)cc3C2)cc1` (configuration not stated), the TGI in [2] is 35.4 µM; in [3] it was 7.78 µM; in [4] it was 48 µM; in [5] it was 32.6 µM; in [6], 58.5 µM; in [7], more than 55.5 µM. Moreover, the TGI in assay [10] was 23.8 µM; in assay [8], 62 µM.

On to `COc1cc(S(=O)(=O)Nc2ccc(-c3csc(N4C(=O)CSC4c4ccccc4)n3)cc2)ccc1Cl` (configuration not stated), for which the TGI in [2], in assay [3], in assay [4], in [5], in assay [6] and in assay [7] was more than 100 µM in each case. Also, the results for the TGI in assay [10], in assay [8] and in [9] were 64.5 µM, more than 100 µM and more than 100 µM, respectively.
